Read-outs that look alike come from different tables or passages of the source.
Biological target: full length NS3/4a (Hepatitis C virus genotype 1b (isolate BK) (HCV), UniProt P26663)
Assay: NS3 Protease Assay (Example A), FRET-based
Format: biochemical
Description: The HCV NS3 protease functions have been extensively studied and are considered as potential targets for antiviral therapy: see for example the many references listed in the introductory section of this application. Therefore, the activity of the compounds of the invention as anti-HCV agents was assessed using a full length HCV NS3 protease.
The protease activity of the full length NS3/4a was measured using a FRET-based assay utilizing a peptide substrate derived from the NS4A/B cleavage site (Anaspec) and labelled at one end with a quencher (QXL520) and at the other with a fluorophore (5-FAMsp). NS3/4a (produced in-house by literature methods) was incubated with test compounds and peptide substrate in 50 mM Tris pH8, 20 mM DTT, 1% CHAPS, 10% glycerol and 5% DMSO. The reaction was followed by monitoring the change in fluorescence on a Molecular Devices Gemini plate reader for 30 minutes at room temperature. Initial rates were calculated from the progress curves using SoftMax Pro (Molecular Devices). IC50 values were then calculated from replicate curves using Prism GraphPad software.

[1] = HCV NS3 protease assay, full length NS3/4a, read-out: Assay A IC50 (μM) average
[2] = read-out: IC50 against the protease activity of the full length NS3/4a
[3] = stated as IC50 less than 30 μM or at least 40% inhibition at a concentration of 100 μM, read-out: IC50 against the protease activity of the full length NS3/4a

full length NS3/4a, sequence (P26663 1027-1657): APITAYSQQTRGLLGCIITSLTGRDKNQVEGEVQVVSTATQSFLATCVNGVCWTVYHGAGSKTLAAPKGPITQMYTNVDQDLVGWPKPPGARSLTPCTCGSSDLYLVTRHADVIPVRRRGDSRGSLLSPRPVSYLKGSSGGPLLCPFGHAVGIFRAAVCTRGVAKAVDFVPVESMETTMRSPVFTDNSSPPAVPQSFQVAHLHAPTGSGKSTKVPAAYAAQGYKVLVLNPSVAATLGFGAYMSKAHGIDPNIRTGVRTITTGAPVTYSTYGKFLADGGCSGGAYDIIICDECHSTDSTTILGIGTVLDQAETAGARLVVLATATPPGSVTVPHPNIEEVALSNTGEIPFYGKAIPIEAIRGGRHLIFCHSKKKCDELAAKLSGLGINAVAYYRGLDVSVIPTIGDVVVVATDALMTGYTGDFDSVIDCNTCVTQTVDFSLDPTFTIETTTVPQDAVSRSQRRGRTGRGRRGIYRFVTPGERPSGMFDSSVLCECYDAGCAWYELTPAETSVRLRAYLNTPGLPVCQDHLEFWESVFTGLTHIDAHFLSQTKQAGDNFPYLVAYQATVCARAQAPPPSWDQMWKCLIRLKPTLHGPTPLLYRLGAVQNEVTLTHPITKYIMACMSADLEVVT

SMILES	IC50 [1] [µM]	IC50 [2] [µM]	also measured
CCC(NC1CCCC1C(N)=O)c1ccc(Cl)c(C(=O)c2ccc(N)nc2)c1F (single isomer, unassigned) [Example 126, 2-{[1-{3-[(6-aminopyridin-3-yl)carbonyl]-4-chloro-2-fluorophenyl}propyl]amino} cyclopentane-1-carboxamide]	0.12	< 1	
CCC(NC1CCCC1C(N)=O)c1ccc(Cl)c(C(=O)c2ccc(N)nc2)c1F (single isomer, unassigned) [Example 127, 2-{[1-{3-[(6-aminopyridin-3-yl)carbonyl]-4-chloro-2-fluorophenyl}propyl]amino} cyclopentane-1-carboxamide]	1.6	1 to 5	
CCC(NC1CCCC1C(N)=O)c1ccc(Cl)c(C(=O)c2ccc(N)nc2)c1F (single isomer, unassigned) [Example 161, 2-{[1-{3-[(6-aminopyridin-3-yl)carbonyl]-4-chloro-2-fluorophenyl}propyl]amino} cyclopentane-1-carboxamide]			inhibition at 10 µM (@ 10 uM): 60%; IC50 [3]: < 30 µM
CCC(NC[C@H](C)C(N)=O)c1ccc(Cl)c(C(=O)c2cccnc2)c1F (stereo in doubt) [Example 175, (2S)-3-{[(1R)-1-{4-chloro-2-fluoro-3-[(pyridin-3-yl)carbonyl]phenyl}-propyl]amino}-2-methylpropanamide]	1.1	1 to 5	
CC[C@@H](N)c1ccc(Cl)c(C(=O)c2ccc(O)cc2)c1F (stereo in doubt) [Example 193, [3-(1-Amino-propyl)-6-chloro-2-fluoro-phenyl]-(4-hydroxy-phenyl)-methanone]	0.31	< 1	
CC[C@@H](N)c1ccc(Cl)c(C(=O)c2ccc(N)nc2)c1F [Example 1, 5-({3-[(1R)-1-aminopropyl]-6-chloro-2-fluorophenyl}carbonyl)-pyridin-2-amine]	0.089	< 1	
CC[C@@H](N)c1ccc(Cl)c(C(=O)c2cccnc2)c1F [Example 2, (1R)-1-{4-chloro-2-fluoro-3-[(pyridin-3-yl)carbonyl]phenyl}-propan-1-amine]	1.4	1 to 5	
CC[C@@H](N)c1ccc(Cl)c(C(=O)c2cnc(N)cn2)c1F [Example 3, 5-({3-[(1R)-1-aminopropyl]-6-chloro-2-fluorophenyl}carbonyl)-pyrazin-2-amine]	1.3	1 to 5	
CC[C@@H](N)c1ccc(Cl)c(C(=O)c2ccc(N)cn2)c1F [Example 5, 6-({3-[(1R)-1-aminopropyl]-6-chloro-2-fluorophenyl}carbonyl)-pyridin-3-amine]		1 to 5	inhibition at 3 µM (@ 3 uM): 55%
CC[C@H](N)c1ccc(Cl)c(C(=O)c2ccccc2)c1F [Example 6, (1S)-1-(3-benzoyl-4-chloro-2-fluorophenyl)propan-1-amine]		< 1	inhibition at 0.3 µM (@ 0.3 uM): 80%
CC[C@@H](N)c1ccc(Cl)c(C(=O)c2cccc(F)c2)c1F [Example 7, (1R)-1-{4-chloro-2-fluoro-3-[(3-fluorophenyl)carbonyl]-phenyl}propan-1-amine]	0.38	< 1	
CC[C@@H](N)c1ccc(Cl)c(C(=O)c2ccc(F)cc2)c1F [Example 8, (1R)-1-{4-chloro-2-fluoro-3-[(4-fluorophenyl)carbonyl]-phenyl}propan-1-amine]	0.19	< 1	
CC[C@@H](N)c1ccc(Cl)c(C(=O)c2ccncn2)c1F [Example 10, (1R)-1-{4-chloro-2-fluoro-3-[(pyrimidin-4-yl)carbonyl]phenyl}-propan-1-amine]	3.5	1 to 5	
CC[C@@H](N)c1ccc(Cl)c(C(=O)c2cncnc2)c1F [Example 12, (1R)-1-{4-chloro-2-fluoro-3-[(pyrimidin-5-yl)carbonyl]phenyl}-propan-1-amine]			inhibition at 30 µM: 47%; IC50 [3]: < 30 µM
CC[C@@H](N)c1ccc(Cl)c(C(=O)c2ccc(F)c(F)c2)c1F [Example 13, (1R)-1-{4-chloro-3-[(3,4-difluorophenyl)carbonyl]-2-fluorophenyl}propan-1-amine]	0.83	< 1	
CC[C@@H](N)c1ccc(Cl)c(C(=O)c2ccccn2)c1F [Example 14, (1R)-1-{4-chloro-2-fluoro-3-[(pyridin-2-yl)carbonyl]phenyl}propan-1-amine]	2.5	1 to 5	
CC[C@@H](N)c1ccc(Cl)c(C(=O)c2ccncc2)c1F [Example 15, (1R)-1-{4-chloro-2-fluoro-3-[(pyridin-4-yl)carbonyl]phenyl}propan-1-amine]	0.84	< 1	
CC[C@@H](N)c1ccc(Cl)c(C(=O)c2ccns2)c1F [Example 16, (1R)-1-{4-chloro-2-fluoro-3-[(1,2-thiazol-5-yl)carbonyl]phenyl}propan-1-amine]	0.47	< 1	

SMILES	IC50 [1] [µM]	IC50 [2] [µM]	also measured
CC[C@@H](N)c1ccc(Cl)c(C(=O)c2cncc(OC)c2)c1F [Example 17, (1R)-1-{4-chloro-2-fluoro-3-[(5-methoxypyridin-3-yl)carbonyl]phenyl}propan-1-amine]			inhibition at 100 µM (@ 100 uM): 65%
CC[C@@H](N)c1ccc(Cl)c(C(=O)c2cccc(C#N)c2)c1F [Example 18, 3-({3-[(1R)-1-aminopropyl]-6-chloro-2-fluorophenyl}carbonyl)benzonitrile]	0.62	< 1	
CC[C@@H](N)c1ccc(Cl)c(C(=O)c2ccc(C(=O)O)nc2)c1F [Example 19, 5-({3-[(1R)-1-aminopropyl]-6-chloro-2-fluorophenyl}carbonyl)pyridine-2-carboxylic acid]	20		IC50 [3]: < 30 µM
CC[C@@H](N)c1ccc(Cl)c(C(=O)c2nccs2)c1F [Example 20, (1R)-1-{4-chloro-2-fluoro-3-[(1,3-thiazol-2-yl)carbonyl]phenyl}propan-1-amine]	0.82	< 1	
CC[C@@H](N)c1ccc(Cl)c(C(=O)c2cc(C)on2)c1F [Example 21, (1R)-1-{4-chloro-2-fluoro-3-[(5-methyl-1,2-oxazol-3-yl)carbonyl]phenyl}propan-1-amine]	1	1 to 5	
CC[C@@H](N)c1ccc(Cl)c(C(=O)c2ccc(C(N)=O)nc2)c1F [Example 22, 5-({3-[(1R)-1-aminopropyl]-6-chloro-2-fluorophenyl}carbonyl)pyridine-2-carboxamide]	1.8	1 to 5	
[2H]C([2H])([2H])C([2H])([2H])[C@@H](N)c1ccc(Cl)c(C(=O)c2ccccc2)c1F [Example 23, (1R)-1-(3-benzoyl-4-chloro-2-fluorophenyl)(2,2,3,3,3-D)propan-1-amine]	0.11	< 1	
[2H]C([2H])([2H])C([2H])([2H])[C@H](N)c1ccc(Cl)c(C(=O)c2ccccc2)c1F [Example 24, (1S)-1-(3-benzoyl-4-chloro-2-fluorophenyl)(2,2,3,3,3-D)propan-1-amine]	0.075	< 1	
CC[C@@H](N)c1ccc(Cl)c(C(=O)c2ccc[n+]([O-])c2)c1F [Example 25, [3-((R)-1-Amino-propyl)-6-chloro-2-fluoro-phenyl]-(1-oxy-pyridin-3-yl)-methanone]			inhibition at 30 µM: 59%; IC50 [3]: < 30 µM
CC[C@H](N)c1ccc(Cl)c(C(=O)c2cccnc2)c1F [Example 26, (1S)-1-{4-chloro-2-fluoro-3-[(pyridin-3-yl)carbonyl]phenyl}propan-1-amine]	0.63	< 1	
N[C@@H](c1ccc(Cl)c(C(=O)c2ccc(F)cc2)c1F)C1CC1 [Example 27, (R)-{4-chloro-2-fluoro-3-[(4-fluorophenyl)carbonyl]phenyl}(cyclopropyl)methanamine]	0.22	< 1	
N[C@@H](c1ccc(Cl)c(C(=O)c2cccnc2)c1F)C1CC1 [Example 28, (R)-{4-chloro-2-fluoro-3-[(pyridin-3-yl)carbonyl]phenyl}(cyclopropyl)methanamine]	1.5	1 to 5	
CC[C@@H](N)c1ccc(Cl)c(C(=O)c2ccc(Cl)nc2)c1F [Example 29, (1R)-1-{4-chloro-3-[(6-chloropyridin-3-yl)carbonyl]-2-fluorophenyl}propan-1-amine]	0.5	< 1	
CC[C@H](N)c1ccc(Cl)c(C(=O)c2ccc(Cl)nc2)c1F [Example 30, (1S)-1-{4-chloro-3-[(6-chloropyridin-3-yl)carbonyl]-2-fluorophenyl}propan-1-amine]	0.21	< 1	
CC[C@H](N)c1ccc(Cl)c(C(=O)c2ccc(N)nc2)c1F [Example 31, 5-({3-[(1S)-1-aminopropyl]-6-chloro-2-fluorophenyl}carbonyl)pyridin-2-amine]	0.18	< 1	
N#Cc1ccc(C(=O)c2c(Cl)ccc([C@H](N)C3CC3)c2F)cc1 [Example 32, 4-({3-[(R)-amino(cyclopropyl)methyl]-6-chloro-2-fluorophenyl}carbonyl)benzonitrile]	0.058	< 1	
N[C@@H](c1ccc(Cl)c(C(=O)c2ccncc2)c1F)C1CC1 [Example 33, (R)-{4-chloro-2-fluoro-3-[(pyridin-4-yl)carbonyl]phenyl}(cyclopropyl)methanamine]	0.71	< 1	
